# Measured values taken from patent EP1167342A1, “Novel substituted nitrocatechols, their use in the treatment of some central and peripheral nervous system disorders and pharmaceutical compositions containing them” (Portela & Ca., S.A., priority 2000, dated 2002).
# Assays:
# COMT = biological target: T1, COMT (Homo sapiens, UniProt P21964); assay: COMT activity in intact SK-N-SH cells (methylation of adrenaline to metanephrine, HPLC with electrochemical detection); assay type: cell-based; details: concentration of test compound 100 nM, means ±SEM of n=4-8
# T1 construct: COMT activity was evaluated in cell monolayers by the ability to methylate adrenaline; host or cells: SK-N-SH
# T1 sequence (P21964 1-271): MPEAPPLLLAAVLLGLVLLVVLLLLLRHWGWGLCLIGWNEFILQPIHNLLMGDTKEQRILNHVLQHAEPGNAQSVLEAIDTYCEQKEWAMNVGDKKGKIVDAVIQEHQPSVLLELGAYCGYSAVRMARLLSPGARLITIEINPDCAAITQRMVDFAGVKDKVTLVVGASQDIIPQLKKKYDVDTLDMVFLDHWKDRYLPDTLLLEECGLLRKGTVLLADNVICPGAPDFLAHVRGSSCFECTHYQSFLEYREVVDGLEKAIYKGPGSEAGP
# Liver COMT = assay: Ex vivo COMT activity in mouse liver homogenates after administration of test compound by gastric tube; set-up: species or system NMRI mice; details: for Liver COMT (% of control) 1h / Liver COMT (% of control) 6h: homogenates of mice liver, dose not given, means±S.E.M. of 4-8 experiments; for Liver COMT (% of control) 1h: 1 h after administration by gastric tube; for Liver COMT (% of control) 6h: 6 h after administration by gastric tube; for potency upon liver COMT compared with brain COMT: mice, after oral administration, statement in words
# Brain COMT = assay: Ex vivo COMT activity in mouse brain homogenates after administration of test compound by gastric tube; set-up: species or system NMRI mice; details: for Brain COMT (% of control) 1h / Brain COMT (% of control) 6h: homogenates of mice brain, dose not given, means±S.E.M. of 4-8 experiments; for Brain COMT (% of control) 1h: 1 h after administration by gastric tube; for Brain COMT (% of control) 6h: 6 h after administration by gastric tube; for activity in the brain: conclusion, statement in words
Structure (SMILES),COMT activity (% of control) (COMT),Liver COMT (% of control) 1h (Liver COMT),Liver COMT (% of control) 6h (Liver COMT),Brain COMT (% of control) 1h (Brain COMT),Brain COMT (% of control) 6h (Brain COMT),potency upon liver COMT compared with brain COMT (Liver COMT),activity in the brain (Brain COMT)
"Cl.O=C(CN1CCCCCC1)c1cc(O)c(O)c([N+](=O)[O-])c1 [Compound 1, 2-Azepan-1-yl-1-(3,4-dihydroxy-5-nitro-phenyl)-ethanone hydrochloride]",4.3±0.6 % of control,40.8±6.4 % of control,49.9±2.2 % of control,45.0±15.0 % of control,102.0±19.0 % of control,–,–
"Cl.O=C(CCN1CCCCC1)c1cc(O)c(O)c([N+](=O)[O-])c1 [Compound 2, 1-(3,4-Dihydroxy-5-nitro-phenyl)-3-piperidin-1-yl-propan-1-one hydrochloride]",7.5±0.6 % of control,24.6±4.8 % of control,56.9±17.7 % of control,80.0±11.0 % of control,95.0±12.0 % of control,much more potent upon liver COMT than brain COMT,limited activity in the brain
"Cl.O=C(CC(c1ccccc1)N1CCCCC1)c1cc(O)c(O)c([N+](=O)[O-])c1 (centres unmarked) [Compound 3, 1-(3,4-Dihydroxy-5-nitro-phenyl)-3-phenyl-3-piperidin-1-yl-propan-1-one hydrochloride]",7.2±1.9 % of control,13.5±3.2 % of control,13.6±3.2 % of control,81.0±11.0 % of control,71.0±11.0 % of control,much more potent upon liver COMT than brain COMT,limited activity in the brain
"Cl.O=C(CC(c1ccccc1)N1CCCC1)c1cc(O)c(O)c([N+](=O)[O-])c1 (centres unmarked) [Compound 4, 1-(3,4-Dihydroxy-5-nitro-phenyl)-3-phenyl-3-pyrrolidin-1-yl-propan-1-one hydrochloride]",23.8±2.9 % of control,12.0±1.8 % of control,14.4±4.3 % of control,55.0±8.7 % of control,49.6±4.9 % of control,–,–
"Cl.O=C(CC(c1ccccc1)N1CCOCC1)c1cc(O)c(O)c([N+](=O)[O-])c1 (centres unmarked) [Compound 5, 1-(3,4-Dihydroxy-5-nitro-phenyl)-3-morpholin-4-yl-3-phenyl-propan-1-one hydrochloride]",40.2±8.7 % of control,16.7±1.6 % of control,35.2±9.6 % of control,38.6±6.4 % of control,57.2±5.1 % of control,equally potent in inhibiting liver and brain COMT activity,–
"CC1CCCCN1CC(=O)c1cc(O)c(O)c([N+](=O)[O-])c1.Cl (centres unmarked) [Compound 6, 1-(3,4-Dihydroxy-5-nitro-phenyl)-2-(2-methyl-piperidin-1-yl)-ethanone hydrochloride]",12.2±1.7 % of control,57.6±5.8 % of control,99.9±10.3 % of control,37.0±3.3 % of control,66.0±2.6 % of control,–,–
"CCN(CC)C(C)C(=O)c1cc(O)c(O)c([N+](=O)[O-])c1.Cl (centres unmarked) [Compound 7, 2-Diethylamino-1-(3,4-dihydroxy-5-nitro-phenyl)-propan-1-one hydrochloride]",9.0±0.2 % of control,38.4±2.8 % of control,57.1±4.9 % of control,74.0±12.0 % of control,126.0±8.0 % of control,–,–
"O=C(COc1ccccc1)c1cc(O)c(O)c([N+](=O)[O-])c1 [Compound 8, 1-(3,4-Dihydroxy-5-nitro-phenyl)-2-phenoxy-ethanone]",8.6±0.1 % of control,22.0±3.7 % of control,49.6±9.4 % of control,61.0±4.0 % of control,104.4±6.2 % of control,–,–
"COc1ccc(OCC(=O)c2cc(O)c(O)c([N+](=O)[O-])c2)cc1 [Compound 9, 1-(3,4-Dihydroxy-5-nitro-phenyl)-2-(4-methoxy-phenoxy)-ethanone]",12.8±0.4 % of control,29.0±1.0 % of control,35.0±6.0 % of control,59.0±6.0 % of control,93.0±9.0 % of control,–,–
"O=C(COc1ccc2ccccc2c1)c1cc(O)c(O)c([N+](=O)[O-])c1 [Compound 10, 1-(3,4-Dihydroxy-5-nitro-phenyl)-2-(naphthalen-2-yloxy)-ethanone]",2.0±0.1 % of control,17.3±2.7 % of control,38.7±4.7 % of control,83.0±5.0 % of control,119.0±13.0 % of control,much more potent upon liver COMT than brain COMT,limited activity in the brain
"CC1CN(CC(=O)c2cc(O)c(O)c([N+](=O)[O-])c2)CC(C)O1.Cl (centres unmarked) [Compound 11, 1-(3,4-Dihydroxy-5-nitro-phenyl)-2-(2,6-dimethyl-morpholin-4-yl)-ethanone hydrochloride]",14.8±1.3 % of control,38.0±5.0 % of control,73.0±10.0 % of control,80.0±5.0 % of control,103.0±7.0 % of control,–,–
"CC1CC(C)CN(CC(=O)c2cc(O)c(O)c([N+](=O)[O-])c2)C1.Cl (centres unmarked) [Compound 12, 1-(3,4-Dihydroxy-5-nitro-phenyl)-2-(3,5-dimethyl-piperidin-1-yl)-ethanone hydrochloride]",15.4±1.8 % of control,33.0±2.0 % of control,52.0±13.0 % of control,32.0±2.0 % of control,84.0±6.0 % of control,–,–
"Cl.Cl.O=C(CN1CCN(c2cccc(C(F)(F)F)c2)CC1)c1cc(O)c(O)c([N+](=O)[O-])c1 [Compound 13, 1-(3,4-Dihydroxy-5-nitro-phenyl)-2-[4-(3-trifluoromethyl-phenyl)-piperazin-1-yl]-ethanone dihydrochloride]",7.7±0.6 % of control,49.7±3.2 % of control,46.7±2.9 % of control,76.0±9.0 % of control,100.0±10.0 % of control,–,–
"Cl.Cl.Cl.O=C(CN1CCN(c2ccccn2)CC1)c1cc(O)c(O)c([N+](=O)[O-])c1 [Compound 14, 1-(3,4-Dihydroxy-5-nitro-phenyl)-2-(4-pyridin-2-yl-piperazin-1-yl)-ethanone trihydrochloride]",8.5±0.3 % of control,33.6±5.6 % of control,50.3±5.6 % of control,95.4±11.4 % of control,121.2±11.8 % of control,–,–
"Cl.N#CC1(c2ccccc2)CCN(CCC(=O)c2cc(O)c(O)c([N+](=O)[O-])c2)CC1 [Compound 15, 1-[3-(3,4-Dihydroxy-5-nitro-phenyl)-3-oxo-propyl]-4-phenyl-piperidine-4-carbonitrile hydrochloride]",2.9±0.3 % of control,51.7±5.9 % of control,37.9±8.4 % of control,93.0±9.0 % of control,122.0±9.0 % of control,–,–
"Cl.O=C(CCN1CCc2ccccc2C1)c1cc(O)c(O)c([N+](=O)[O-])c1 [Compound 27, 3-(3,4-Dihydro-1H-isoquinolin-2-yl)-1-(3,4-dihydroxy-5-nitro-phenyl)-propan-1-one hydrochloride]",11.4±4.0 % of control,–,–,–,–,–,–
"Cc1ccc(SCC(=O)c2cc(O)c(O)c([N+](=O)[O-])c2)cc1 [Compound 28, 1-(3,4-Dihydroxy-5-nitro-phenyl)-2-p-tolylsulphanyl-ethanone]",10.0±2.6 % of control,–,–,–,–,–,–
"Cl.Cl.O=C(CCN1CCN(C(=O)c2ccccc2)CC1)c1cc(O)c(O)c([N+](=O)[O-])c1 [Compound 29, 3-(4-Benzoyl-piperazin-1-yl)-1-(3,4-dihydroxy-5-nitro-phenyl)-propan-1-one dihydrochloride]",1.5±0.6 % of control,–,–,–,–,–,–
"COc1ccc(C(=O)N2CCN(CCC(=O)c3cc(O)c(O)c([N+](=O)[O-])c3)CC2)cc1.Cl.Cl [Compound 30, 1-(3,4-Dihydroxy-5-nitro-phenyl)-3-[4-(4-methoxy-benzoyl)-piperazin-1-yl]-propan-1-one dihydrochloride]",1.9±1.3 % of control,–,–,–,–,–,–
